# In patent US20230105212A1, “BIPHENYL DERIVATIVE INHIBITOR, PREPARATION METHOD THEREFOR AND USE THEREOF” (SHANGHAI HANSOH BIOMEDICAL CO., LTD., priority 2020, published 2023):
# Tests used:
# [1] = biological target: T1, PD-L1 protein on the surface of MC38-hPDL1 tumor cells (Homo sapiens, UniProt Q9NZQ7); experiment: Induction of endocytosis of PD-L1 on the surface of tumor cells (flow cytometry); format: cell-based; conditions: 16 hours incubation; for Emax: MC38-hPDL1 cells, read-out: MC38 maximum endocytosis rate; for IC50: inducing endocytosis of PD-L1, MC38-hPDL1 cells, read-out: MC38 IC50
# T1 construct: expressed in transfected cells; host or cells: MC38-hPDL1 (mouse colon cancer cells)
# T1 sequence (Q9NZQ7 19-290): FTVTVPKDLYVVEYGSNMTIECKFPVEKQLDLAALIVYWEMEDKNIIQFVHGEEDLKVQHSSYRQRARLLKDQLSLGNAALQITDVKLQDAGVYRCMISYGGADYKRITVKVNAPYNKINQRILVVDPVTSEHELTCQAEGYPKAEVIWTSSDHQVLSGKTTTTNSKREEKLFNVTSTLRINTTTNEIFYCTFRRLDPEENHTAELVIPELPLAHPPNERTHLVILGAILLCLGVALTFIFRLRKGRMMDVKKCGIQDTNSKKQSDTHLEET
# Source text: Test Embodiment 2. Test of the Activity of Compounds of the Present Disclosure on Inducing the Endocytosis of PD-L1 Protein on the Surface of Tumor Cells
# Experimental purpose: The purpose of this test embodiment was to test the activity of the compound on inducing the endocytosis of PD-L1 on the surface of tumor cells.
# Experimental method: In order to test the activity of the compound on inducing the endocytosis of PD-L1, in this experiment, the activity of the compound on inducing the endocytosis of PD-L1 was tested by detecting the change degree of PD-L1 on the tumor cell surface with fluorescently labeled anti-PD-L1 antibody, and the IC50 of activity of the compound on inducing the endocytosis of PD-L1 was obtained.
# The mouse colon cancer cells MC38-hPDL1 with high expression of hPD-L1 were collected, and adjusted to a suitable density and plated in a 24-well plate, and placed in a 37° C., 5% CO2 incubator to adhere overnight. Compounds were prepared into different concentrations by medium and added to a 24-well plate, and a vehicle control well was set up. After the cells were incubated in a 37° C., 5% CO2 incubator for 16 hours, the 24-well plate was taken out, and MC38-hPDL1 cells with different treatments in the plate were collected. After the cells were washed once with FACS buffer (PBS containing 0.5% BSA), and the cells were prepared to an appropriate density with FACS buffer. PE Mouse Anti-Human CD274 antibody (BD Pharmingen #557924) was added, and the cells were shaken at room temperature and incubated for 30 minutes without light, then the cells were washed twice with FACS buffer, resuspended in 100 μL of PBS, and a flow cytometer was used to detect the fluorescent signal on the cell surface, and the isotype control was set as a negative control.
# The endocytosis rate of the compounds was calculated from the fluorescence signals of different treatment groups, and the compound concentration and endocytosis rate were fitted by nonlinear regression using GraphPad Prism software, and IC50 values were obtained, as shown in Table 2.
# human PD-1/PD-L1 binding = biological target: T2, human PD-1/PD-L1 binding (Homo sapiens, UniProt Q9NZQ7); experiment: Inhibition of human PD-1/PD-L1 binding (TR-FRET/HTRF); conditions: TR-FRET, PD-L1-His and PD-1-Fc; read-out: PD-1/PD-L1 binding IC50
# T2 construct: PD-L1-His protein (19 to 238 amino acids) (Abcam #ab167713); purchased Abcam (PD-L1-His); R&D (PD-1-Fc) ab167713; 1086-PD
# T2 sequence (Q9NZQ7 19-238): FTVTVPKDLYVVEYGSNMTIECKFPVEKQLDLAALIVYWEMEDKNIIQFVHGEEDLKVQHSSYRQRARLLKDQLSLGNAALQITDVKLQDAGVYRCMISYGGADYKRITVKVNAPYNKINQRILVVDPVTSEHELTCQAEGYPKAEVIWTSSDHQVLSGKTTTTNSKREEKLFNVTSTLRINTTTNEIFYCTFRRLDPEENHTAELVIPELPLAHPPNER
# Source text: Test Embodiment 1: Test of Inhibitory Effect of the Compounds of the Present Disclosure on Human PD-1/PD-L1 Binding
# Experimental purpose: The purpose of this test embodiment was to measure the inhibitory activity of the compounds on human PD-1/PD-L1 binding.
# Experimental reagents: Binding Domain diluent buffer was purchased from Cisbio Company, Cat. No.: 62DLBDDF; MAb Anti-6HIS Eu cryptate Gold was purchased from Cisbio Company with the article number of 61HI2KLA; PAb Anti Human IgG-XL665 was purchased from Cisbio Company with the article number of 61HFCXLB; PD-L1-His protein was purchased from Abcam Company with the article number of ab167713; PD-1-Fc protein was purchased from R&D Company with the article number of 1086-PD; Detection buffer was purchased from Cisbio Company with the article number of 62SDBRDD; 384-well plate was purchased from PerkinElmer Company with the article number of 6007290.
# Experimental method: In order to test the inhibitory activity of the compounds on human PD-1/PD-L1 binding, the method of time-resolved fluorescence resonance energy transfer (TR-FRET) was used in this experiment to test the inhibition of the compounds on human PD-1/PD-L1 binding, and the half inhibitory concentration IC50 of inhibitory activity of the compounds on human PD-1/PD-L1 binding was obtained.
# This experiment was performed in a 384-well plate with a total reaction volume of 20 μL. Compounds were diluted to different concentrations (10 μM or 1 μM starting, 3-fold dilution, 11 doses) using assay buffer Binding Domain diluent buffer (Cisbio #62DLBDDF), then PD-L1-His protein (19 to 238 amino acids) (Abcam #ab167713) was diluted to 10 nM with assay buffer, and PD-1-Fc protein (25 to 167 amino acids) (R&D #1086-PD) was diluted to 20 nM with assay buffer; the compound, PD-L1 protein and PD-1 protein were added to a 384-well plate respectively, and the total volume was 10 μL, then centrifuged at 1000 rpm for 1 minute to mix well, and incubated for 60 minutes at room temperature. Then 10 μL of a mixed solution of MAb Anti-6HIS Eu cryptate Gold (Cisbio #61HI2KLA) and PAb Anti Human IgG-XL665 (Cisbio #61HFCXLB) diluted by HTRF Detection buffer was added to each well, and centrifuged at 1000 rpm for 1 minute to mix well. The reaction was carried out at room temperature for 3 hours or at 4° C. overnight, then a microplate reader (BioTek Synergy H1) was put into for reading; the excitation wavelength was 340 nm, and the emission wavelengths were 620 nm and 665 nm.
# The ratio of fluorescence readings at 620 nm and 665 nm (665 nm/620 nm) was calculated, and the inhibition rate was calculated.
Compound,Emax [1],IC50 [1],IC50 (human PD-1/PD-L1 binding)
"CCN1CCc2c(nc(C(=O)Nc3cccc(-c4cccc(NC(=O)c5cc(OC)c(CO)cn5)c4C)c3Cl)n2C)C1 [Embodiment 88, N-(2-Chloro-3′-(5-(hydroxymethyl)-4-methoxypicolinamido)-2′-methyl-[1,1′-biphenyl]-3-yl)-5-ethyl-1-methyl-4,5,6,7-tetrahydro-1H-imidazo[4,5-c]pyridine-2-carboxamide]",–,–,9 nM
"COc1nc(-c2cccc(-c3cccc(NC(=O)c4nc5c(n4C)CCN(C)C5)c3Cl)c2Cl)ccc1CN1CCN(C(=O)C(F)(F)F)CC1 [Embodiment 202, N-(2,2′-Dichloro-3′-(6-methoxy-5-((4-(2,2,2-trifluoroacetyl)piperazin-1-yl)methyl)pyridin-2-yl)-[1,1′-biphenyl]-3-yl)-1,5-dimethyl-4,5,6,7-tetrahydro-1H-imidazo[4,5-c]pyridine-2-carboxamide]",89%,–,–
"COc1cc(-c2cccc(-c3cccc(NC(=O)c4nc5c(n4C)CCN(C)C5)c3Cl)c2Cl)ncc1CNC1CCOCC1 [Embodiment 57, N-(2,2′-Dichloro-3′-(4-methoxy-5-(((tetrahydro-2H-pyran-4-yl)amino)methyl)pyridin-2-yl)-[1,1′-biphenyl]-3-yl)-1,5-dimethyl-4,5,6,7-tetrahydro-1H-imidazo[4,5-c]pyridine-2-carboxamide]",–,–,3 nM
"COc1cc(NCc2cnc(C(=O)Nc3cccc(-c4cccc(NC(=O)c5nc6c(n5C)CCN(CC5CC5)C6)c4Cl)c3Cl)cc2OC)ccn1 [Embodiment 83, 5-(Cyclopropylmethyl)-N-(2,2′-dichloro-3′-(4-methoxy-5-(((2-methoxypyridin-4-yl)amino)methyl)picolinamido)-[1,1′-biphenyl]-3-yl)-1-methyl-4,5,6,7-tetrahydro-1H-imidazo[4,5-c]pyridine-2-carboxamide]",–,–,2.7 nM
"COc1nc(-c2cccc(-c3cccc(NC(=O)c4nc5c(n4C)CCN(C)C5)c3Cl)c2Cl)ccc1CN1CCN(S(C)(=O)=O)CC1 [Embodiment 204, N-(2,2′-Dichloro-3′-(6-methoxy-5-((4-(methylsulfonyl)piperazin-1-yl)methyl)pyridin-2-yl)-[1,1′-biphenyl]-3-yl)-1,5-dimethyl-4,5,6,7-tetrahydro-1H-imidazo[4,5-c]pyridine-2-carboxamide]",89%,–,–
"COc1cc(NCc2cnc(C(=O)Nc3cccc(-c4cccc(NC(=O)c5nc6c(n5C)CCN(C(C)C)C6)c4Cl)c3C)cc2OC)ccn1 [Embodiment 70, N-(2-Chloro-3′-(4-methoxy-5-(((2-methoxypyridin-4-yl)amino)methyl)picolinamido)-2′-methyl-[1,1′-biphenyl]-3-yl)-5-isopropyl-1-methyl-4,5,6,7-tetrahydro-1H-imidazo[4,5-c]pyridine-2-carboxamide]",81%,4 nM,–
"COc1cc(NCc2cnc(C(=O)Nc3cccc(-c4cccc(NC(=O)c5nc6c(n5C)CCN(C)C6)c4Cl)c3C)cc2C2CC2)ccn1 [Embodiment 44, N-(2-Chloro-3′-(4-cyclopropyl-5-(((2-methoxypyridin-4-yl)amino)methyl)picolinamido)-2′-methyl-[1,1′-biphenyl]-3-yl)-1,5-dimethyl-4,5,6,7-tetrahydro-1H-imidazo[4,5-c]pyridine-2-carboxamide]",88%,4.2 nM,–
"COc1ccnc(NCc2cnc(C(=O)Nc3cccc(-c4cccc(NC(=O)c5nc6c(n5C)CCN(C)C6)c4Cl)c3C)cc2OC)c1 [Embodiment 12, N-(2-Chloro-3′-(4-methoxy-5-(((4-methoxypyridin-2-yl)amino)methyl)picolinamido)-2′-methyl-[1,1′-biphenyl]-3-yl)-1,5-dimethyl-4,5,6,7-tetrahydro-1H-imidazo[4,5-c]pyridine-2-carboxamide]",84%,6.5 nM,–
"COc1cc(C(=O)Nc2cccc(-c3cccc(NC(=O)c4nc5c(n4C)CCN(C)C5)c3Cl)c2C)ncc1CNCc1ncccc1OC [Embodiment 13, N-(2-Chloro-3′-(4-methoxy-5-((((3-methoxypyridin-2-yl)methyl)amino)methyl)picolinamido)-2′-methyl-[1,1′-biphenyl]-3-yl)-1,5-dimethyl-4,5,6,7-tetrahydro-1H-imidazo[4,5-c]pyridine-2-carboxamide]",87%,6.6 nM,–

# The remaining lines, values ahead:
Emax [1],IC50 [1],IC50 (human PD-1/PD-L1 binding),Compound
85%,7 nM,–,"COc1cc(C(=O)Nc2cccc(-c3cccc(NC(=O)c4nc5c(n4C)CCN(C)C5)c3Cl)c2C)ncc1CNCC1(F)CCOCC1 [Embodiment 19, N-(2-Chloro-3′-(5-((((4-fluorotetrahydro-2H-pyran-4-yl)methyl)amino)methyl)-4-methoxypicolinamido)-2′-methyl-[1,1′-biphenyl]-3-yl)-1,5-dimethyl-4,5,6,7-tetrahydro-1H-imidazo[4,5-c]pyridine-2-carboxamide]"
–,–,4.7 nM,"COc1cc(CN[C@@H]2CCOC[C@@H]2F)cnc1C(=O)Nc1cccc(-c2cccc(NC(=O)c3nc4c(n3C)CCN(C)C4)c2Cl)c1C [Embodiment 109, N-(2-Chloro-3′-(5-((((3R,4R)-3-fluorotetrahydro-2H-pyran-4-yl)amino)methyl)-3-methoxypicolinamido)-2′-methyl-[1,1′-biphenyl]-3-yl)-1,5-dimethyl-4,5,6,7-tetrahydro-1H-imidazo[4,5-c]pyridine-2-carboxamide]"
–,–,5 nM,"COc1cc(C(=O)Nc2cccc(-c3cccc(NC(=O)c4nc5c(n4C)CCN(C)C5)c3Cl)c2C)ncc1CN[C@@H]1CCNC1=O [Embodiment 97, (R)—N-(2-Chloro-3′-(4-methoxy-5-(((2-carbonylpyrrolidin-3-yl)amino)methyl)picolinamido)-2′-methyl-[1,1′-biphenyl]-3-yl)-1,5-dimethyl-4,5,6,7-tetrahydro-1H-imidazo[4,5-c]pyridine-2-carboxamide]"
–,–,6.5 nM,"Cc1c(NC(=O)c2ccc(CN3CC[C@@H](F)C3)cn2)cccc1-c1cccc(NC(=O)c2nc3c(n2C)CCN(C)C3)c1Cl [Embodiment 106, (R)—N-(2-Chloro-3′-(5-((3-fluoropyrrolidin-1-yl)methyl)picolinamido)-2′-methyl-[1,1′-biphenyl]-3-yl)-1,5-dimethyl-4,5,6,7-tetrahydro-1H-imidazo[4,5-c]pyridine-2-carboxamide]"
95%,0.9 nM,–,"COc1cc(C(=O)Nc2cccc(-c3cccc(NC(=O)c4nc5c(n4C)CCN(C)C5)c3Cl)c2C)ncc1CN1CC[C@@H](F)C1 [Embodiment 25, (R)—N-(2-Chloro-3′-(5-((3-fluoropyrrolidin-1-yl)methyl)-4-methoxypicolinamido)-2′-methyl-[1,1′-biphenyl]-3-yl)-1,5-dimethyl-4,5,6,7-tetrahydro-1H-imidazo[4,5-c]pyridine-2-carboxamide]"
